Columns and labels:
Type in all cases: cell-based, mouse
NFATc1 [1] = assay: NFATc1 expression after RNA interference for eIF2α in RAW264.7 cells; settings: for reduction of NFATc1: 20 μM
Method: (§1) METHOD EXAMPLE. Western Immunoblotting. Cells were lysed in a radioimmunoprecipitation assay (RIPA) buffer containing protease inhibitors (Santa Cruz Biotechnology, Santa Cruz, Calif., USA) and phosphatase inhibitors (Calbiochem, Billerica, Mass., USA). Isolated proteins were fractionated using 10-15% SDS gels and electro-transferred to Immobilon-P membranes (Millipore, Billerica, Mass., USA). The membrane was incubated for 1 h with primary antibodies followed by 45 min incubation with goat anti-rabbit or anti-mouse IgG conjugated with horseradish peroxidase (Cell Signaling, Danvers, Mass., USA). We used antibodies against ATF4, NFATcl (Santa Cruz), p-eIF2α (Thermo Scientific, Waltham, Mass., USA), eIF2α, caspase 3, cleaved caspase 3, p38 and p-p38 mitogen activated protein kinase (MAPK), extracellular signal-regulated kinase (ERK) and p-ERK, nuclear factor kappa B (NFκB) p65 and p-NFκB p65 (Cell Signaling), and β-actin (Sigma). Protein levels were assayed using a SuperSignal west femto maximum sensitivity substrate (Thermo Scientific), and signal intensities were quantified with a luminescent image analyzer (LAS-3000, Fuji Film, Tokyo, Japan).
METHOD EXAMPLE. Knockdown of ATF4 and eIF2α by siRNA. Cells were treated with siRNA specific to ATF4 and eIF2α (Life Technologies). Selected target sequences for knockdown of ATF4 and eIF2α were: ATF4, 5′-GCU GCU UAC AUU ACU CUA A-3′; and eIF2α, 5′-CGG UCA AAA UUC GAG CAG A-3′. As a nonspecific control, a negative siRNA (Silencer Select #1, Life Technologies) was used. Cells were transiently transfected with siRNA for ATF4, eIF2α or control in Opti-MEM I medium with Lipofectamine RNAiMAX (Life Technologies). Six hours later, the medium was replaced by regular culture medium. The efficiency of silencing was assessed with immunoblotting or quantitative PCR 48 h after transfection.
METHOD EXAMPLE. Reduction in salubrinal/guanabenz-driven suppression of NFATcl expression by RNA interference for eTF2α. To evaluate the effects of eIF2α on the expression level of NFATcl, RNA interference specific for eIF2α together with a non-specific control (NC) was used (FIG. 10). […] However, the expression of NFATcl was reduced only by 20% in the cells transfected with eIF2α siRNA.

RAW264.7 cells = assay: Osteoclastogenesis in vitro and TRAP staining; settings: for number of TRAP-positive multi-nucleated cells: with 20 ng/ml RANKL, 5 days of culture; for growth area covered by multi-nucleated cells: dose dependent
Method: METHOD EXAMPLE. Inhibition of osteoclastogenesis of RAW264.7 cells by salubrinal. The primary aim of this study is to evaluate the effects of salubrinal on osteoclastogenesis. In response to 0.1-20 μM salubrinal for 24 h, cell mortality and live cell numbers of RAW264.7 pre-osteoclasts was examined. […] The number of live cells was increased by ˜50% by incubation with RANKL, and administration of 10-20 μM salubrinal reduced the numbers approximately by 10% (FIG. 3B).
METHOD EXAMPLE. Inhibitory effects of guanabenz on osteoclastogenesis of RAW264.7 cells. To further examine a potential involvement of p-eIF2α in regulation of osteoclastogenesis, we employed guanabenz that also acts as an inhibitor of de-phosphorylation of eIF2α was evaluated. […] Compared to the number of TRAP-positive multi-nucleated cells of 377 39 (RANKL only), guanabenz reduced the number of differentiated osteoclasts to 364±38 (1 μM), 288±51 (5 μM), 189±25 (10 μM), and 73±16 (20 μM).
METHOD EXAMPLE. Osteoclastogenesis in vitro and TRAP (Tartrate-resistant acid phosphatase) staining. RAW264.7 cells were plated at a density of 5×10^3/cm^2 into a 12-well or a 60 mm dish, and cultured with 20 ng/ml RANKL in the presence and absence of salubrinal or guanabenz. The culture medium was replaced every 2 days. After 5 days of culture, the cells were stained for TRAP staining using an acid phosphatase leukocyte kit (Sigma). The number of TRAP-positive cells containing three or more nuclei was determined

NFATc1 [2] = assay: Western immunoblotting, NFATc1 expression in RAW264.7 cells; settings: for expression of NFATc1: absence of RANKL administration
Method: METHOD EXAMPLE. Downregulation of NFATcl in RAW264.7 cells by salubrinal. NFATcl is a transcription factor critical for activating osteoclastogenesis. […] The RANKL-induced expression of NFATcl was reduced by administration of 5-20 μM salubrinal on both days, and the effect of salubrinal was dose dependent (FIG. 4).
(§2) METHOD EXAMPLE. Reduction of RANKL-induced NFATcl, c-Fos, TRAP, and OSCAR by guanabenz. […] The normalized level of “1” was defined as the level for the cells that were not treated with RANKL without administration of guanabenz.
as §1
METHOD EXAMPLE. Temporal profile of p-eIF2α and NFATcl. […] Note that the normalized level of “1” in FIG. 6C was defined as the level for the cells that were not treated with RANKL without administration of guanabenz.

p-eIF2α [3] = assay: Western immunoblotting, p-eIF2α in MC3T3 E1-14 cells
Method: as §1
METHOD EXAMPLE. ATF4-mediated elevation of osteocalcin mRNA in MC3T3 E1-14 cells. Salubrinal is an inhibitor of de-phosphorylation of eIF2α. […]

p-eIF2α [4] = assay: Western immunoblotting, p-eIF2α in RAW264.7 cells; settings: with RANKL
Source text: as §2, §1
METHOD EXAMPLE. […]

[5] = cells transfected with the control siRNA

## N=C(N)N/N=C/c1c(Cl)cccc1Cl [guanabenz]
NFATc1 [1]; 20 μM guanabenz, transfection of eIF2α siRNA
  suppressive effect on NFATc1 level: abolished the suppressive effect
NFATc1 [1]; [5]
  reduction of NFATc1: 43%
RAW264.7 cells; 1 μM
  number of TRAP-positive multi-nucleated cells: 364±38
RAW264.7 cells; 5 μM
  number of TRAP-positive multi-nucleated cells: 288±51
RAW264.7 cells; 10 μM
  number of TRAP-positive multi-nucleated cells: 189±25
RAW264.7 cells; 20 μM
  number of TRAP-positive multi-nucleated cells: 73±16
RAW264.7 cells
  growth area covered by multi-nucleated cells: significantly reduced
RAW264.7 cells; guanabenz dose response, with RANKL
  osteoclastogenesis of RAW264.7 cells: attenuated osteoclastogenesis of RAW264.7 cells in a dose dependent manner
NFATc1 [2]; 20 μM guanabenz, with RANKL
  temporal expression profile of NFATc1: partially suppressed in 8 h
NFATc1 [2]
  expression of NFATc1: did not significantly alter
NFATc1 [2]; guanabenz dose response, 2 days after RANKL
  induction of NFATc1 by RANKL: suppressed by guanabenz in a dose dependent manner
p-eIF2α [3]; guanabenz
  p-eIF2α: increase in p-eIF2α and ATF4
p-eIF2α [4]; 20 μM guanabenz
  temporal expression profile of p-eIF2α: upregulatcd in 2 h

## O=C(/C=C/c1ccccc1)NC(NC(=S)Nc1cccc2cccnc12)C(Cl)(Cl)Cl (stereo not drawn) [salubrinal]
NFATc1 [1]; cells transfected with eIF2α siRNA
  reduction of NFATc1: 20%
NFATc1 [1]; [5]
  reduction of NFATc1: 56%
RAW264.7 cells; 0.5 μM to 20 μM salubrinal, with RANKL
  number of TRAP-positive cells: reduced the number of TRAP-positive cells in a dose dependent manner
RAW264.7 cells
  growth area covered by multi-nucleated cells: significantly reduced
NFATc1 [2]; 20 μM salubrinal, 8 h, with RANKL
  reduction of the level of NFATc1: 48%
NFATc1 [2]; 20 μM salubrinal, 24 h, with RANKL
  reduction of the level of NFATc1: 44%
NFATc1 [2]; 20 μM salubrinal, early period (2-4 h), with RANKL
  level of NFATc1: did not alter
NFATc1 [2]; 5-20 μM salubrinal, day 2 and day 4, dose dependent
  RANKL-induced expression of NFATc1: reduced
NFATc1 [2]
  expression of NFATc1: did not significantly alter
p-eIF2α [3]; 5 μM salubrinal
  phosphorylation of eIF2α: elevated phosphorylation of eIF2α
p-eIF2α [4]; 20 μM salubrinal, early period (2-4 h)
  level of p-eIF2α: increased the level of p-eIF2α
